Measured values from PMC11459959, “Discovery of new acetamide derivatives of 5-indole-1,3,4-oxadiazol-2-thiol as inhibitors of HIV-1 Tat-mediated viral transcription” (Antimicrobial Agents and Chemotherapy, 2024).
Where two headings read alike, the source gives them in different places.

Legend:
Format in all cases: cell-based
[1] = Cell viability of A3.01 cells; conditions: human
Method: (§1) The p24 level from the cell supernatant was subsequently determined using a p24 […] kit (PerkinElmer). In parallel, the cell viability was determined without viral infection because of the viral cytopathic effect. […] In parallel, cell viability was determined. The data (A and B) are presented as the mean ± SD (n = 3). (C) PBMCs (4 × 10^5) infected with HIV-AD8 at an MOI of 0.1 were treated with 1.5 µM of the compounds or ARVs for 3 days. The levels of p24 and cell viability were subsequently determined. (D) J1.1 cells were cultured with the compounds ([…]) under 50 ng/mL phorbol myristate acetate (PMA) treatment for 2 days. The level of p24 was subsequently determined. (E) J-Lat 6.3 cells were treated with the compounds (1.5 µM) under 1 µg/mL of PMA for 2 days. The GFP-positive cell population was analyzed using flow cytometry. The data are represented as a value relative to the DMSO-treated vehicle (D) and a percent of the GFP^+ cell population (E) as mean ± SD (n = 3).
(§2) The inhibitory effects of the compounds on viral replication were determined with some minor modifications, as previously described ([12], [62]). […] PBMCs (4 × 10^5) pre-activated with PHA-M for 3 days were washed with fresh media to remove excess PHA-M and subsequently infected with HIV-1NL4-3 or HIV-1AD8 or PIs-resistant HIV-1 strains as A3.01 infection. After infection, the infectious media were replaced with fresh media supplemented with international 10 units (IU)/mL of IL-2 and the indicated compounds. At 72 h after infection, the inhibitory effect of the compounds on viral replication was determined by measuring the p24 amount, an HIV capsid protein, using an HIV-1 p24 […] kit (PerkinElmer, Waltham, MA, USA). Cell viability was determined as described above. The inhibitory effects on provirus reversing in J1.1 and J-Lat 6.3 cells were determined as previously described ([12], [41], [63]) with some minor modifications. Briefly, 5 × 10^4 persistently HIV-1-infected J1.1 or J-Lat 6.3 cells were cultured in either the presence or absence of the compounds at a final concentration of 1.5 µM and treated with PMA (50 ng/mL for J1.1 cells, 1 µg/mL for J-Lat 6.3 cells). Two days after treatment, the levels of viral production were determined using p24 […] for J1.1 cells and flow cytometry analysis for GFP-expressing J-Lat 6.3 cells.

[2] = tested on: HIV-1NL4-3; assay: HIV-1 replication in PBMCs (p24 […]); conditions: for EC50: Human immunodeficiency virus 1, PBMC, 72 h
Method: as §1, §2

[3] = tested on: HIV-1NL4-3; assay: Time-of-addition assay in TZM-bl cells; conditions: HIV-1NL4-3 MOI 1, 9 and 13 1.5 μM, T-20 1 µM, triptolide 5 nM, ARVs 1 µM, F-Luc at 54 h
Method: Fig 5 (A) Time-of-addition assay. […] Subsequently, the cells were treated with the compounds at the indicated time points (0, 1, 2, 4, 6, 8, 10, 12, 24, 30, 36, 42, and 48 h) after HIV-1 infection. The final concentrations of compounds are described in Materials and Methods. Viral activity according to the timing of drug addition was measured as F-Luc activity at 54 h after infection. The relative activities are represented as the mean ± SD (n = 3) compared with the activity observed 54 h post-infection. The relative time frames associated with each HIV-1 infection step are defined based on the time frame of susceptibility to the drug that blocks that particular infection step. […] At 16 h after infection, the viral reverse transcription (RT) product (viral cDNA) level was determined by quantitative real-time PCR (RT-qPCR) using gag and 18S rRNA primer sets and represented as the mean ± SD (n = 3) normalized against the amount of the 18S rRNA compared with the DMSO control. **P < 0.01 compared with the vehicle (DMSO). (C) An in vitro integrase (IN) assay was performed with 10 µM of the indicated compounds following the manufacturer’s protocol. **P < 0.01 compared with vehicle (DMSO). (D) A3.01 cells were infected with HIV-1 upon treatment with the indicated compounds (5 µM) and ARVs (EFV and DTG) as the experimental controls. At 40 h after infection, cellular chromosomal DNA was purified, and the integrated proviral DNA was detected through nested Alu-PCR amplification.
A time-of-addition assay was performed as previously described ([25]) with minor modifications. […] Reference drug and test compounds were subsequently added at the indicated time (0, 1, 2, 4, 6, 8, 10, 12, 24, 30, 36, 42, and 48 h after infection). Final concentrations were as follows: compounds 9 and 13 (1.5 μM), T-20 (1 µM), Triptolide (5 nM), and ARVs (AZT, EFV, DTG, RAL) (1 µM). The viral activity according to the timing of drug addition was measured using a Bright Glo luciferase assay kit (Promega). Virus activity curves present a % activity relative to the activity observed at 54 h after infection, and the data are presented as the mean ± standard deviation (SD) (n = 3). The relative time frame associated with each HIV-1 infection step was defined based on the sensitivity to each drug that blocks a particular infection step.

[4] = A3.01 cells, absence of HIV-1 infection, mean ± SD, read-out: CC50
[5] = HIV-1NL4-3 MOI 0.1, 3 days, p24, read-out: EC50
[6] = HIV-1NL4-3 MOI 0.1, 3 days, p24, mean ± SD, read-out: EC50
[7] = Table S1, WT virus, 10-fold serial dilution, p24, 3 days, read-out: EC50

CC(C)[C@]12O[C@H]1[C@@H]1O[C@]13[C@]1(O[C@H]1C[C@H]1C4=C(CC[C@@]13C)C(=O)OC4)[C@@H]2O [triptolide, reference compound]
CC50 at 3 days [1, 4]: 220 ± 40 nM
SI (CC50/EC50) [2]: 11.23
EC50 [2, 5]: 16.9 ± 3.75 nM
time of administration after infection at which effectiveness began to decrease / was lost [3]: 24 h

Cc1[nH]c2ccc(-c3nnc(SCC(=O)N4CCCC4)o3)cc2c1C [Compound 13, 2-((5-(2,3-Dimethyl-1H-indol-5-yl)-1,3,4-oxadiazol-2-yl)thio)-1-(pyrrolidin-1-yl)ethan-1-one]
CC50 at 3 days [1]: 47600 ± 1880 nM
SI (CC50/EC50) [2]: 282.81
EC50 [2, 6]: 160 ± 20 nM
EC50 [2, 7]: 100 ± 10 nM
time of administration after infection at which effectiveness began to decrease / was lost [3]: 24 h

Cc1[nH]c2ccc(-c3nnc(SCC(=O)N4CCCCC4)o3)cc2c1C [Compound 9, 2-((5-(2,3-Dimethyl-1H-indol-5-yl)-1,3,4-oxadiazol-2-yl)thio)-1-(piperidin-1-yl)ethan-1-one]
CC50 at 3 days [1]: 56100 ± 4480 nM
SI (CC50/EC50) [2]: 315.14
EC50 [2, 6]: 140 ± 10 nM
EC50 [2, 7]: 100 nM
time of administration after infection at which effectiveness began to decrease / was lost [3]: 24 h

O=C1Nc2ccc(Cl)cc2[C@@](C#CC2CC2)(C(F)(F)F)O1 [EFV, efavirenz, reference compound]
CC50 at 3 days [1, 4]: 22700 ± 1650 nM
SI (CC50/EC50) [2]: >29,460
EC50 [2, 5]: < 1 nM
time of administration after infection at which effectiveness began to decrease / was lost [3]: 8 h

C[C@@H]1CCO[C@H]2Cn3cc(C(=O)NCc4ccc(F)cc4F)c(=O)c(O)c3C(=O)N12 [DTG, dolutegravir, reference compound]
CC50 at 3 days [1]: 7670 ± 610 nM
SI (CC50/EC50) [2]: >18,270
EC50 [2, 5]: < 1 nM
time of administration after infection at which effectiveness began to decrease / was lost [3]: 10 h
